Test results reported in US11344571B2, “NO containing compositions” (University Court of the University of St. Andrews, priority 2015, dated 2022).
Where a name gives a salt, the structure may show the parent alone. One block for each compound: values may come before it.

How the values were obtained:
[1] = NO release triggered by UV light (300-400 nm), chemiluminescence analysis
Experimental: After the NO release was completed the sample was kept on the bench at room temperature, exposed to air and humidity for over 48 hr.
The release of NO over time was recorded using the same analyser described above.

[2] = NO release triggered by constant flow of humid nitrogen gas (11% RH), chemiluminescence nitric oxide analyser; format: physicochemical; conditions: humid nitrogen 11% RH; for total nitric oxide released: in 19 hr
From the text: The release of NO from the sample was first triggered by passing a constant flow of humid nitrogen gas (11% RH) over it. The amount of NO released over time was detected using a Sievers NOA 280i chemiluminescence nitric oxide analyser until the emission of NO reached a level lower than 20 ppb.

[3] = NO release from NO-loaded sample submersed in deionized water, chemiluminescence analysis; format: physicochemical
Experimental: The NO-loaded sample was submersed under 5 ml of deionized water in a sealed chamber connected to an NO analyser. A constant flow of nitrogen was bubbled through the suspension while measuring the concentration of NO present in the chamber atmosphere.
The release of NO from the sample triggered by the water was measured in ppm and ppb over time until the level of NO dropped below 20 ppb. The initial burst release of NO reached 40 ppm. The sample released up to 0.035 mmol/g of nitric oxide in 7 hrs (FIG. 5A).

[4] = Gravimetric NO adsorption/desorption isotherms at 298K; format: physicochemical
Experimental: The nitric oxide adsorption/desorption profiles for two further chlorhexidine diacetate samples (25 mg) were collected using a bespoke gravimetric adsorption system. Each sample was exposed to high vacuum at a pressure of 1×10^−4 mbar overnight until no further mass loss was observed. The samples were cooled to 298K using a water bath (temperature accuracy of 0.02K).
For one sample, shown in the outer plot of FIGS. 2A-2B, NO was introduced in increasing increments. After each dose of NO, the mass of the sample was allowed to stabilise (indicating completion of adsorption) before the next addition was made. This process was continued until the introduced pressure of NO was equal to atmospheric pressure. The second sample was exposed to one atmosphere of NO in a single step, and its mass allowed to equilibrate. Data is shown in the inner plot of FIGS. 2A-2B. The desorption profiles of both samples, shown in FIGS. 2A-2B, were measured by reducing the pressure in increments to a final value of 2×10^−2 mbar.

UV-triggered immediate burst of NO release ([1]; burst from 30 ppb, after over 48 hr on bench in air and humidity): 105 ppb | maximum NO on continuous UV exposure ([1]; continuous exposure about 5 mins, after over 48 hr storage in air): around 120 ppb | NO release level sustained under continuous UV exposure ([1]; for more than 4 hrs): over 70 ppb | maximum NO on continuous UV exposure ([1]; sample in water, immediately after water-triggered release, about 10 minutes): around 1000 ppb | initial burst of release of NO (peak) [2]: 512 PPM | total NO release ([2]; in 18 hrs): 0.03 mmol/g | total nitric oxide released [2]: up to 0.042 mmol/g | initial burst release of NO (peak) ([3]; 100 mg under 5 ml deionized water, nitrogen bubbled): 40 ppm | total nitric oxide released ([3]; in water, in 7 hrs): up to 0.035 mmol/g | maximum NO adsorbed ([4]; NO pressure up to atmospheric, gravimetric): ~0.9 mmole of NO per gram | level of stored NO after reapplication of vacuum ([4]; desorption to 2x10^-2 mbar, both samples): ~0.4 mmole per gram
Compound: N=C(NCCCCCCNC(=N)NC(=N)Nc1ccc(Cl)cc1)NC(=N)Nc1ccc(Cl)cc1 [chlorhexidine diacetate]
maximum NO adsorbed, molecules of NO per molecule of chlorhexidine ([4]; NO pressure up to atmospheric): 0.55 molecules of NO per molecule of chlorhexidine | level of stored NO after reapplication of vacuum, molecules per molecule of chlorhexidine ([4]; desorption to 2x10^-2 mbar): circa 0.25 molecules per molecule of chlorhexidine

UV-triggered burst of NO (peak) ([1]; after 2 days on bench in humid air): up to 150 ppb | NO level to which UV-triggered burst dropped ([1]; over 1 hr, after 2 days in humid air): 75 ppb | duration of initial burst release of NO on humidity [2]: a couple of minutes
Compound: N=C(NCCCCCCNC(=N)NC(=N)Nc1ccc(Cl)cc1)NC(=N)Nc1ccc(Cl)cc1 [chlorhexidine dihydrochloride]

duration of initial burst release of NO on humidity [2]: a couple of minutes
Compound: O=C(O)c1cn(C2CC2)c2cc(N3CCNCC3)c(F)cc2c1=O [ciprofloxacin]

initial burst of release of NO (peak) [2]: 512 ppm | total nitric oxide released [2]: up to 0.042 mmol/g
Compound: NS(=O)(=O)c1cc(C(=O)O)c(NCc2ccco2)cc1Cl [furosemide]
